For the test, the target named is T1, SOS1 protein (Homo sapiens, UniProt Q07889).
T1 sequence (Q07889 1-1333): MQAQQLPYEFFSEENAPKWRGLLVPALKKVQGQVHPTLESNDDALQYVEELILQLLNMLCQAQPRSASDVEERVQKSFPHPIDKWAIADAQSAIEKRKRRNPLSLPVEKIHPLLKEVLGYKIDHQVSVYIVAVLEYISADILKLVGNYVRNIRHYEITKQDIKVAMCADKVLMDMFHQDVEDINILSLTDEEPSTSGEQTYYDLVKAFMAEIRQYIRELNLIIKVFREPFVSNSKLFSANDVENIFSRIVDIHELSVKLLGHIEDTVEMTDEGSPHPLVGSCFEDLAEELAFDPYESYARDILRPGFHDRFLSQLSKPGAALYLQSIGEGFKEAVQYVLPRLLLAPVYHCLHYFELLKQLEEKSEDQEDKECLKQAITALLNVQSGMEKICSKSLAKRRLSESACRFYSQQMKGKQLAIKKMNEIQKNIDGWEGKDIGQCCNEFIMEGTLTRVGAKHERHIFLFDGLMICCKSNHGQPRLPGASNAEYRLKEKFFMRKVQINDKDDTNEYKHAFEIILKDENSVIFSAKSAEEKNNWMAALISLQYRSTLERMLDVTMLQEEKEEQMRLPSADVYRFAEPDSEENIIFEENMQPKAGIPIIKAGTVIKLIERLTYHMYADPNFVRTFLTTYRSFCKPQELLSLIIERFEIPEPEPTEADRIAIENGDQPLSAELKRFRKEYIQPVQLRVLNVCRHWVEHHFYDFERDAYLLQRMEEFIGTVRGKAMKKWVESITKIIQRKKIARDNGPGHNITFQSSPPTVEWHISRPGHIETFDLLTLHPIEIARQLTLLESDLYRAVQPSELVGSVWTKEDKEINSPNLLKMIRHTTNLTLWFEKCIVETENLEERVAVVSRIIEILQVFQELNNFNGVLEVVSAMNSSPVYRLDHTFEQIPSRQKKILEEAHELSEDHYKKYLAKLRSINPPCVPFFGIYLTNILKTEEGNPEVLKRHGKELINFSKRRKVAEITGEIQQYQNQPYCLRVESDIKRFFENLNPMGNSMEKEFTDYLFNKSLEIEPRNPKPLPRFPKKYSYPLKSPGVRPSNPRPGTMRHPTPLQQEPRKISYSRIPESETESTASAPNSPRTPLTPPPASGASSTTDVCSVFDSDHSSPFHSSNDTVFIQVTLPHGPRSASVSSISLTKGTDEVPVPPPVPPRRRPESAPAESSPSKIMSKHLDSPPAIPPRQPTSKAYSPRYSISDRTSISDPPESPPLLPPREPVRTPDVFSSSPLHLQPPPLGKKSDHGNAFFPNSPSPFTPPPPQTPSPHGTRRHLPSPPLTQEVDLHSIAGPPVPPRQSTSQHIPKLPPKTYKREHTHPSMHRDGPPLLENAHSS
Briefly: SOS1 degradation assay (Western blot), NCI-H358 cells. Format: cell-based. Further details: The degradation of SOS1 by the compounds was investigated on KRAS G12C mutant human non-small cell lung cancer cells NCI-H358; host or cells: NCI-H358 (human cancer cell lines). The note with it: SOS1 degradation, NCI-H358 cells, 24 h, Western blot; for DC50: read-out: NCI-H358 (G12C) DC50; for Dmax: read-out: NCI-H358 (G12C) Dmax. The protocol:
The specific procedures were as follows:
0.95 mL of cells were seeded into each well of a 24-well cell culture plate to achieve a cell density of 5×10^5 cells/well; the cell plate was incubated in an incubator at 37° C. with 5% CO2 overnight. Then 50 μL of the compound solution after dilution was added to each of the wells with the corresponding cells, so that the final concentration of the compound was in a range of 0.03-3000 nM. […] After dosing, the cell plate was incubated in an incubator at 37° C. with 5% CO2 for 24 h. […] After the plate was left to stand on ice for 30 min, the protein lysate in each well was transferred to a 1.5 mL centrifuge tube and centrifuged at 15000 g for 20 min at 4° C. The cell lysate supernatant after centrifugation was cryopreserved at −80° C. for testing and was used for determining the degradation level of the SOS1 protein by a WB method. The concentration of total protein in the cell lysate supernatant was determined using the BCA Protein Quantification Kit (Tiangen, PA115-02).
The concentration of total protein in the cell lysate was determined by BCA. The total protein was adjusted to 0.5 μg/μL with PBS and 5× SDS-PAGE protein loading buffer (Beyotime, P0015L), incubated in a water bath at 100° C. for 15 min, incubated in an ice bath on ice for 5 min, centrifuged at 14000 g for 1 min at 4° C., and mixed well as a loading sample for WB. Protein electrophoresis was performed on a precast gel (KeyGEN, KGMGO10W15) with a loading volume of 10 μL (total protein: 5 μg) using a Tris-MOPS-SDS running solution (Adamas, P1598253) at a constant voltage of 120 V for 55 min. After the electrophoresis, the protein on the gel strip was transferred to a PVDF membrane at a constant current of 250 mA for 65 min. After the membrane transfer, the membrane was incubated in 1× QuickBlock blocking buffer (Beyotime, P0235) for 30 min at room temperature. […] The protein map was subjected to gray value analysis by the chemiluminescence imaging system from Clinx. […] Then the degradation rate was calculated by comparing the gray correction value with the gray correction value of the control group. Then nonlinear curve fitting was performed by GraphPad Prism 8 in the logarithmic concentration-inhibition rate to obtain the DC50 and Dmax values of the compounds.

These results are taken from US20240261417A1, “SOS1 DEGRADING AGENT AND PREPARATION METHOD THEREFOR AND APPLICATION THEREOF” (SHANGHAI LEADINGTAC PHARMACEUTICAL CO. LTD., priority 2021, published 2024).

Regarding `COc1cc2nc(C)nc(N[C@H](C)c3cc(N)cc(C(F)(F)F)c3)c2cc1[C@H]1CC[C@H](C(=O)N2CCN(CC#CC3CCN(C(=O)c4ccc(Cl)c(N5CCC(=O)NC5=O)c4)CC3)CC2)CC1` [Example 27, 1-(5-(4-(3-(4-((1R,4R)-4-(4-(((R)-1-(3-amino-5-(trifluoromethyl)phenyl)ethyl)amino)-7-methoxy-2-methylquinazolin-6-yl)cyclohexane-1-carbonyl)piperazin-1-yl)prop-1-yn-1-yl)piperidine-1-carbonyl)-2-chlorophenyl)dihydropyrimidine-2,4(1H,3H)-dione], the DC50 lay within 1000 to 10000 nM and the Dmax was less than 30%.

On to `COc1cc2nc(C)nc(N[C@H](C)c3cc(N)cc(C(F)(F)F)c3)c2cc1[C@H]1CC[C@H](C(=O)N2CCN(CCCCC3CCN(C(=O)c4ccc(Cl)c(N5CCC(=O)NC5=O)c4)CC3)CC2)CC1` [Example 29, 1-(5-(4-(4-(4-((1R,4R)-4-(4-(((R)-1-(3-amino-5-(trifluoromethyl)phenyl)ethyl)amino)-7-methoxy-2-methylquinazolin-6-yl)cyclohexane-1-carbonyl)piperazin-1-yl)butyl)piperidine-1-carbonyl)-2-chlorophenyl)dihydropyrimidine-2,4(1H,3H)-dione], for which the DC50 was less than 50 nM and the Dmax lay within 80 to 100%. For `COc1cc2nc(C)nc(N[C@H](C)c3cc(N)cc(C(F)(F)F)c3)c2cc1C1CCC(C(=O)N2CCN(CC3CCC4(CC3)CCN(C(=O)c3ccc(C5CCC(=O)NC5=O)cc3)CC4)CC2)CC1` (stereo partly drawn) [Example 23, 3-(4-(9-((4-((1R,4R)-4-(4-(((R)-1-(3-amino-5-(trifluoromethyl)phenyl)ethyl)amino)-7-methoxy-2-methylquinazolin-6-yl)cyclohexane-1-carbonyl)piperazin-1-yl)methyl)-3-azaspiro[5.5]undecane-3-carbonyl)phenyl)piperidine-2,6-dione], the “NCI-H358 (G12C) Dmax” value is “B (when 50≤Dmax (%)<80, the level was B)” and the DC50 is less than 50 nM. On to `COc1cc2nc(C)nc(N[C@H](C)c3cc(N)cc(C(F)(F)F)c3)c2cc1[C@H]1CC[C@H](C(=O)N2CCN(CCCC3CCN(C(=O)c4ccc(Cl)c(N5CCC(=O)NC5=O)c4)CC3)CC2)CC1` [Example 11, 1-(5-(4-(3-(4-((1R,4R)-4-(4-(((R)-1-(3-amino-5-(trifluoromethyl)phenyl)ethyl)amino)-7-methoxy-2-methylquinazolin-6-yl)cyclohexane-1-carbonyl)piperazin-1-yl)propyl)piperidine-1-carbonyl)-2-chlorophenyl)dihydropyrimidine-2,4(1H,3H)-dione], for which the DC50 was 1000 to 10000 nM and the maximal degradation (Dmax) fell in the range of 30 to 50%. As to `COc1cc2nc(C)nc(N[C@H](C)c3cc(-c4ccccc4CN(C)C)cs3)c2cc1[C@H]1CC[C@H](C(=O)N2CCC(CCOCC3CCN(C(=O)c4ccc(Cl)c(N5CCC(=O)NC5=O)c4)CC3)CC2)CC1` [Example 48], the DC50 was less than 50 nM and the Dmax lay in the range of 80 to 100%. Take `COc1cc2nc(C)nc(N[C@@H](C)c3cc(N)cc(C(F)(F)F)c3)c2cc1[C@H]1CC[C@@H](C(=O)N2CCN(CCC3CCC4(CC3)CCN(C(=O)c3ccc(Cl)c(N5CCC(=O)NC5=O)c3)CC4)CC2)CC1` [Example 34, 1-(5-(9-(2-(4-((1S,4S)-4-(4-(((R)-1-(3-amino-5-(trifluoromethyl)phenyl)ethyl)amino)-7-methoxy-2-methylquinazolin-6-yl)cyclohexane-1-carbonyl)piperazin-1-yl)ethyl)-3-azaspiro[5.5]undecane-3-carbonyl)-2-chlorophenyl)dihydropyrimidine-2,4(1H,3H)-dione]: the “NCI-H358 (G12C) Dmax” value is recorded as “C (when 30≤Dmax (%)<50, the level was C)”.

As to `COc1cc2nc(C)nc(N[C@H](C)c3cc(N)cc(C(F)(F)F)c3)c2cc1C1CCN(C(=O)C2CCN(CC3CCC4(CC3)CCN(C(=O)c3ccc(Cl)c(N5CCC(=O)NC5=O)c3)CC4)CC2)CC1` [Example 4], the DC50 lay in the range of 50 to 100 nM and the Dmax is 30 to 50%.

As for `COc1cc2nc(C)nc(N[C@H](C)c3cc(N)cc(C(F)(F)F)c3)c2cc1[C@H]1CC[C@H](C(=O)N2CCN(CCC3CCN(C(=O)c4ccc(Cl)c(N5CCC(=O)NC5=O)c4)CC3)CC2)CC1` [Example 12, 1-(5-(4-(2-(4-((1R,4R)-4-(4-(((R)-1-(3-amino-5-(trifluoromethyl)phenyl)ethyl)amino)-7-methoxy-2-methylquinazolin-6-yl)cyclohexane-1-carbonyl)piperazin-1-yl)ethyl)piperidine-1-carbonyl)-2-chlorophenyl)dihydropyrimidine-2,4(1H,3H)-dione], the DC50 is 1000 to 10000 nM and the Dmax fell in the range of 30 to 50%.

In the case of `COc1cc2nc(C)nc(N[C@H](C)c3cc(N)cc(C(F)(F)F)c3)c2cc1[C@H]1CC[C@H](C(=O)N2CCC(COCC3CCN(C(=O)c4ccc(Cl)c(N5CCC(=O)NC5=O)c4)CC3)CC2)CC1` [Example 76, 1-(5-(4-(((1-((1R,4R)-4-(4-(((R)-1-(3-amino-5-(trifluoromethyl)phenyl)ethyl)amino)-7-methoxy-2-methylquinazolin-6-yl)cyclohexane-1-carbonyl)piperidin-4-yl)methoxy-d2)methyl)piperidine-1-carbonyl)-2-chlorophenyl)dihydropyrimidine-2,4(1H,3H)-dione], the DC50 is less than 50 nM. Take `[2H]C([2H])(OCC1CCN(C(=O)c2ccc(Cl)c(N3CCC(=O)NC3=O)c2)CC1)C1CCN(C(=O)[C@H]2CC[C@H](c3cc4c(N[C@H](C)c5cc(N)cc(C(F)(F)F)c5)nc(C)nc4cc3OC)CC2)CC1` [Example 76, 1-(5-(4-(((1-((1R,4R)-4-(4-(((R)-1-(3-amino-5-(trifluoromethyl)phenyl)ethyl)amino)-7-methoxy-2-methylquinazolin-6-yl)cyclohexane-1-carbonyl)piperidin-4-yl)methoxy-d2)methyl)piperidine-1-carbonyl)-2-chlorophenyl)dihydropyrimidine-2,4(1H,3H)-dione]: the “NCI-H358 (G12C) Dmax” value is given as “B (when 50≤Dmax (%)<80, the level was B)”.
